Assay results reported in ChEMBL document CHEMBL3739361, “Design, facile synthesis and anthelmintic activity of new O-substituted 6-methoxybenzothiazole-2-carbamates” (2015).

How the values were obtained:
Type in all cases: functional
Paramphistomum [1] = test: Antihelmintic activity against rumen flukes assessed as mortality at 80 ug/ml after 1 hr relative to control
Paramphistomum [2] = test: Antihelmintic activity against rumen flukes assessed as mortality at 80 ug/ml after 6 hrs relative to control
Paramphistomum [3] = test: Antihelmintic activity against rumen flukes assessed as mortality at 40 ug/ml after 2 hrs relative to control
Paramphistomum [4] = test: Antihelmintic activity against rumen flukes assessed as mortality at 40 ug/ml after 4 hrs relative to control
Paramphistomum [5] = test: Antihelmintic activity against rumen flukes assessed as mortality at 40 ug/ml after 6 hrs relative to control
Paramphistomum [6] = test: Antihelmintic activity against rumen flukes assessed as mortality at 80 ug/ml after 4 hrs relative to control
Paramphistomum [7] = test: Antihelmintic activity against rumen flukes assessed as mortality at 40 ug/ml after 1 hr relative to control
Paramphistomum [8] = test: Antihelmintic activity against rumen flukes assessed as mortality at 80 ug/ml after 2 hrs relative to control

In the case of `COC(=O)Nc1nc2ccc(OCC(=O)N/N=C(\C)c3ccc(C)cc3)cc2s1` (mixture of isomers), the mortality at 80 µg/mL (Paramphistomum [1]) is reported as 20%, the mortality at 80 µg/mL (Paramphistomum [2]) is reported as 20% and the mortality at 40 µg/mL (Paramphistomum [3]) is reported as 10%. For the same molecule, the mortality at 40 µg/mL (Paramphistomum [4]) was 10%, the mortality at 40 µg/mL (Paramphistomum [5]) was 10% and the mortality at 80 µg/mL (Paramphistomum [6]) was 20%. It also gave a mortality at 40 µg/mL (Paramphistomum [7]) of 10% and a mortality at 80 µg/mL (Paramphistomum [8]) of 20%.

`CC(=O)Nc1nc2ccc(OCC3=NN(C(C)=O)C(c4ccc([N+](=O)[O-])cc4)O3)cc2s1` (stereo not given) gave a mortality at 80 µg/mL (Paramphistomum [1]) of 20%, a mortality at 80 µg/mL (Paramphistomum [2]) of 100% and a mortality at 40 µg/mL (Paramphistomum [3]) of 30%. For the same molecule, the mortality at 40 µg/mL (Paramphistomum [4]) was 40%, the mortality at 40 µg/mL (Paramphistomum [5]) was 70% and the mortality at 80 µg/mL (Paramphistomum [6]) was 70%. For the same molecule, the mortality at 40 µg/mL (Paramphistomum [7]) was 10% and the mortality at 80 µg/mL (Paramphistomum [8]) was 50%.

`CC(=O)Nc1nc2ccc(OCC3=NN(C(C)=O)C(c4ccccc4)O3)cc2s1` (stereo not given) showed a mortality at 80 µg/mL (Paramphistomum [1]) of 0%, a mortality at 80 µg/mL (Paramphistomum [2]) of 10% and a mortality at 40 µg/mL (Paramphistomum [3]) of 0%. It also gave a mortality at 40 µg/mL (Paramphistomum [4]) of 0%, a mortality at 40 µg/mL (Paramphistomum [5]) of 0% and a mortality at 80 µg/mL (Paramphistomum [6]) of 10%. For the same molecule, the mortality at 40 µg/mL (Paramphistomum [7]) was 0% and the mortality at 80 µg/mL (Paramphistomum [8]) was 0%.

For `COC(=O)Nc1nc2ccc(OCC(=O)N/N=C(\C)c3ccccc3)cc2s1` (mixture of isomers), the mortality at 80 µg/mL (Paramphistomum [1]) was 20%, the mortality at 80 µg/mL (Paramphistomum [2]) was 30% and the mortality at 40 µg/mL (Paramphistomum [3]) was 10%. For the same molecule, the mortality at 40 µg/mL (Paramphistomum [4]) was 10%, the mortality at 40 µg/mL (Paramphistomum [5]) was 20% and the mortality at 80 µg/mL (Paramphistomum [6]) was 20%. For the same molecule, the mortality at 40 µg/mL (Paramphistomum [7]) was 10% and the mortality at 80 µg/mL (Paramphistomum [8]) was 20%.

In the case of `COC(=O)Nc1nc2ccc(OCC(=O)NNS(=O)(=O)c3ccccc3)cc2s1`, the mortality at 80 µg/mL (Paramphistomum [1]) is reported as 20%, the mortality at 80 µg/mL (Paramphistomum [2]) is reported as 50% and the mortality at 40 µg/mL (Paramphistomum [3]) is reported as 10%. The mortality at 40 µg/mL (Paramphistomum [4]) was 20%, the mortality at 40 µg/mL (Paramphistomum [5]) was 30% and the mortality at 80 µg/mL (Paramphistomum [6]) was 40%. The mortality at 40 µg/mL (Paramphistomum [7]) was 10% and the mortality at 80 µg/mL (Paramphistomum [8]) was 30%.

Molecule `COC(=O)Nc1nc2ccc(OCC(=O)N/N=C/c3ccccc3)cc2s1` (mixture of isomers) has a mortality at 80 µg/mL (Paramphistomum [1]) of 10%, a mortality at 80 µg/mL (Paramphistomum [2]) of 40% and a mortality at 40 µg/mL (Paramphistomum [3]) of 10%. The mortality at 40 µg/mL (Paramphistomum [4]) was 10%, the mortality at 40 µg/mL (Paramphistomum [5]) was 20% and the mortality at 80 µg/mL (Paramphistomum [6]) was 20%. The mortality at 40 µg/mL (Paramphistomum [7]) was 10% and the mortality at 80 µg/mL (Paramphistomum [8]) was 20%.

With `COC(=O)Nc1nc2ccc(OCC(=O)N/N=C(\C)c3ccc(Br)cc3)cc2s1` (mixture of isomers) the mortality at 80 µg/mL (Paramphistomum [1]) was 20%, the mortality at 80 µg/mL (Paramphistomum [2]) was 30% and the mortality at 40 µg/mL (Paramphistomum [3]) was 10%. It also gave a mortality at 40 µg/mL (Paramphistomum [4]) of 10%, a mortality at 40 µg/mL (Paramphistomum [5]) of 10% and a mortality at 80 µg/mL (Paramphistomum [6]) of 30%. It also gave a mortality at 40 µg/mL (Paramphistomum [7]) of 10% and a mortality at 80 µg/mL (Paramphistomum [8]) of 20%.

`COC(=O)Nc1nc2ccc(OCC(=O)N/N=C(\C)c3ccc(Cl)cc3)cc2s1` (mixture of isomers) gave a mortality at 80 µg/mL (Paramphistomum [1]) of 30%, a mortality at 80 µg/mL (Paramphistomum [2]) of 70% and a mortality at 40 µg/mL (Paramphistomum [3]) of 10%. The mortality at 40 µg/mL (Paramphistomum [4]) was 30%, the mortality at 40 µg/mL (Paramphistomum [5]) was 40% and the mortality at 80 µg/mL (Paramphistomum [6]) was 50%. It also gave a mortality at 40 µg/mL (Paramphistomum [7]) of 10% and a mortality at 80 µg/mL (Paramphistomum [8]) of 40%.

`COC(=O)Nc1nc2ccc(OCC(=O)NNS(=O)(=O)c3ccc(C)cc3)cc2s1` was tested, and the mortality at 80 µg/mL (Paramphistomum [1]) was 20%, the mortality at 80 µg/mL (Paramphistomum [2]) was 40% and the mortality at 40 µg/mL (Paramphistomum [3]) was 10%. The mortality at 40 µg/mL (Paramphistomum [4]) was 20%, the mortality at 40 µg/mL (Paramphistomum [5]) was 30% and the mortality at 80 µg/mL (Paramphistomum [6]) was 30%. The mortality at 40 µg/mL (Paramphistomum [7]) was 10% and the mortality at 80 µg/mL (Paramphistomum [8]) was 20%.

`COC(=O)Nc1nc2ccc(OCC(=O)N/N=C/c3ccco3)cc2s1` gave a mortality at 80 µg/mL (Paramphistomum [1]) of 30%, a mortality at 80 µg/mL (Paramphistomum [2]) of 70% and a mortality at 40 µg/mL (Paramphistomum [3]) of 20%. It also gave a mortality at 40 µg/mL (Paramphistomum [4]) of 30%, a mortality at 40 µg/mL (Paramphistomum [5]) of 40% and a mortality at 80 µg/mL (Paramphistomum [6]) of 60%. It also gave a mortality at 40 µg/mL (Paramphistomum [7]) of 10% and a mortality at 80 µg/mL (Paramphistomum [8]) of 40%.

`CC(=O)Nc1nc2ccc(OCC3=NN(C(C)=O)C(c4ccc(Cl)cc4)O3)cc2s1` (stereo not given) showed a mortality at 80 µg/mL (Paramphistomum [1]) of 20%, a mortality at 80 µg/mL (Paramphistomum [2]) of 100% and a mortality at 40 µg/mL (Paramphistomum [3]) of 40%. For the same molecule, the mortality at 40 µg/mL (Paramphistomum [4]) was 50%, the mortality at 40 µg/mL (Paramphistomum [5]) was 60% and the mortality at 80 µg/mL (Paramphistomum [6]) was 80%. It also gave a mortality at 40 µg/mL (Paramphistomum [7]) of 20% and a mortality at 80 µg/mL (Paramphistomum [8]) of 50%.

For `COC(=O)Nc1nc2ccc(OCC(=O)N/N=C/c3ccc([N+](=O)[O-])cc3)cc2s1` (mixture of isomers), the mortality at 80 µg/mL (Paramphistomum [1]) was 20%, the mortality at 80 µg/mL (Paramphistomum [2]) was 20% and the mortality at 40 µg/mL (Paramphistomum [3]) was 10%. For the same molecule, the mortality at 40 µg/mL (Paramphistomum [4]) was 10%, the mortality at 40 µg/mL (Paramphistomum [5]) was 10% and the mortality at 80 µg/mL (Paramphistomum [6]) was 20%. It also gave a mortality at 40 µg/mL (Paramphistomum [7]) of 10% and a mortality at 80 µg/mL (Paramphistomum [8]) of 20%.

For `COC(=O)Nc1nc2ccc(OCC(=O)N/N=C/c3ccccc3OC(=O)OC)cc2s1` (mixture of isomers), the mortality at 80 µg/mL (Paramphistomum [1]) was 10%, the mortality at 80 µg/mL (Paramphistomum [2]) was 20% and the mortality at 40 µg/mL (Paramphistomum [3]) was 10%. For the same molecule, the mortality at 40 µg/mL (Paramphistomum [4]) was 10%, the mortality at 40 µg/mL (Paramphistomum [5]) was 10% and the mortality at 80 µg/mL (Paramphistomum [6]) was 20%. It also gave a mortality at 40 µg/mL (Paramphistomum [7]) of 10% and a mortality at 80 µg/mL (Paramphistomum [8]) of 20%.

`COC(=O)NNC(=O)COc1ccc2nc(NC(=O)OC)sc2c1` showed a mortality at 80 µg/mL (Paramphistomum [1]) of 30%, a mortality at 80 µg/mL (Paramphistomum [2]) of 80% and a mortality at 40 µg/mL (Paramphistomum [3]) of 20%. For the same molecule, the mortality at 40 µg/mL (Paramphistomum [4]) was 30%, the mortality at 40 µg/mL (Paramphistomum [5]) was 40% and the mortality at 80 µg/mL (Paramphistomum [6]) was 70%. It also gave a mortality at 40 µg/mL (Paramphistomum [7]) of 10% and a mortality at 80 µg/mL (Paramphistomum [8]) of 40%.

`COC(=O)Nc1nc2ccc(OCC(=O)N/N=C/c3ccc(Cl)cc3)cc2s1` (mixture of isomers) was tested, and the mortality at 80 µg/mL (Paramphistomum [1]) was 20%, the mortality at 80 µg/mL (Paramphistomum [2]) was 60% and the mortality at 40 µg/mL (Paramphistomum [3]) was 0%. It also gave a mortality at 40 µg/mL (Paramphistomum [4]) of 10%, a mortality at 40 µg/mL (Paramphistomum [5]) of 20% and a mortality at 80 µg/mL (Paramphistomum [6]) of 50%. For the same molecule, the mortality at 40 µg/mL (Paramphistomum [7]) was 0% and the mortality at 80 µg/mL (Paramphistomum [8]) was 30%.

`O=C(Nc1cc(Cl)cc(Cl)c1O)c1c(O)c(Cl)cc(Cl)c1Cl` [OXYCLOZANIDE] showed a mortality at 80 µg/mL (Paramphistomum [1]) of 50%, a mortality at 40 µg/mL (Paramphistomum [3]) of 70% and a mortality at 40 µg/mL (Paramphistomum [4]) of 100%. The mortality at 40 µg/mL (Paramphistomum [7]) was 30% and the mortality at 80 µg/mL (Paramphistomum [8]) was 100%.
